# Source: patent publication US7317007B2, “Benzothiazole derivatives with activity as adenosine receptor ligands” (Hoffmann-La Roche Inc., priority 2000, dated 2008)
# Counter-ions that a name gives are not always drawn.
# Biological target: T1, human adenosine A2A receptor (Homo sapiens, UniProt P29274)
# T1 construct: expressed in transfected cells; host or cells: CHO cells, Semliki Forest virus expression system; washed membrane pellet used
# Assay: [3H]-SCH-58261 binding assay at the human adenosine A2A receptor
# Settings: not given
# Protocol: Human Adenosine A2A Receptor
# The human adenosine A2A receptor was recombinantly expressed in chinese hamster ovary (CHO) cells using the semliki forest virus expression system. Cells were harvested, washed twice by centrifugation, homogenised and again washed by centrifugation. The final washed membrane pellet was suspended in a Tris (50 mM) buffer containing 120 mM NaCl, 5 mM KCl, 2 mM CaCl2 and 10 mM MgCl2 (pH 7.4) (buffer A). The [^3H]-SCH-58261 (Dionisotti et al., 1997, Br J Pharmacol 121, 353; 1 nM) binding assay was carried out in 96-well plates in the presence of 2.5 μg of membrane protein, 0.5 mg of Ysi-poly-1-lysine SPA beads and 0.1 U adenosine deaminase in a final volume of 200 μl of buffer A. Non-specific binding was defined using xanthine amine congener (XAC; 2 μM). Compounds were tested at 10 concentrations from 10 μM-0.3 nM. All assays were conducted in duplicate and repeated at least two times. Assay plates were incubated for 1 hour at room temperature before centrifugation and then bound ligand determined using a Packard Topcount scintillation counter. IC50 values were calculated using a non-linear curve fitting program and Ki values calculated using the Cheng-Prussoff equation.
# T1 sequence (P29274 whole entry): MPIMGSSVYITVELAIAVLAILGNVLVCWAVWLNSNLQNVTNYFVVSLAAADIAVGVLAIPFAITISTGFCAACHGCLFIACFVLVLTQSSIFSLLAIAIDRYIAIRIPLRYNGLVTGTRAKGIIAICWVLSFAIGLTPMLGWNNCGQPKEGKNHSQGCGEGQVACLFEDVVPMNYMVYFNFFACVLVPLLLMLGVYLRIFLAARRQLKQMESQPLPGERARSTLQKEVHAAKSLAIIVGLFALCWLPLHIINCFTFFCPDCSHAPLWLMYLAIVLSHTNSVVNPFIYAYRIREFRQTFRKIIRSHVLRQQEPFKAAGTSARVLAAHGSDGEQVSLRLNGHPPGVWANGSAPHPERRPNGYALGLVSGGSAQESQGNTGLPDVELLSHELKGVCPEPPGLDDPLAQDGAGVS
row,Compound,Ki [nM]
1,"COc1ccc(N2CCOCC2)c2sc(NC(=O)N3CCC(=O)CC3)nc12 [Example 342, 4-Oxo-piperidine-1-carboxylic acid (4-methoxy-7-morpholin-4-yl-benzothiazol-2-yl)-amide]",3.16

# Same assay, conditions: read-out: pKi value (converted)
row,Compound,Ki [nM]
1,"COC(=O)N(C)Cc1ccc(C(=O)Nc2nc3c(OC)ccc(N4CCOCC4)c3s2)cc1 [Example 369, [4-(4-Methoxy-7-morpholin-4-yl-benzothiazol-2-ylcarbamoyl)-benzyl]-methyl-carbamic acid methyl ester]",0.631
2,"CCN(CCOC)Cc1cc(C(=O)Nc2nc3c(OC)ccc(N4CCOCC4)c3s2)ccc1Cl [Example 278, 4-Chloro-3-{[ethyl-(2-methoxy-ethyl)-amino]-methyl}-N-(4-methoxy-7-morpholin-4-yl-benzothiazol-2-yl)-benzamide]",3.16
3,"COCCOCc1ccc(C(=O)Nc2nc3c(OC)ccc(N4CCOCC4)c3s2)cc1 [Example 314, 4-(2-Methoxy-ethoxymethyl)-N-(4-methoxy-7-morpholin-4-yl-benzothiazol-2-yl)-benzamide]",3.16
4,"COc1ccc(N2CCSCC2)c2sc(NC(=O)c3ccccc3)nc12 [Example 317, N-(4-Methoxy-7-thiomorpholin-4-yl-benzothiazol-2-yl)-benzamide]",2.51
5,"COc1ccc(-c2ccccc2)c2sc(NC(=O)c3ccc(C)s3)nc12 [Example 3, 5-Methyl-thiophene-2-carboxylic acid (4-methoxy-7-phenyl-benzothiazol-2-yl)-amide]",1.58
6,"COc1ccc(N2CCOCC2)c2sc(NC(=O)c3ccc(Cl)c(CN4CCCC4)c3)nc12 [Example 283, 4-Chloro-N-(4-methoxy-7-morpholin-4-yl-benzothiazol-2-yl)-3-pyrrolidin-1-ylmethyl-benzamide]",1
7,"CCOCCN(CC)Cc1ccc(C(=O)Nc2nc3c(OC)ccc(N4CCOCC4)c3s2)cc1 [Example 301, 4-{[(2-Ethoxy-ethyl)-ethyl-amino]-methyl}-N-(4-methoxy-7-morpholin-4-yl-benzothiazol-2-yl)-benzamide]",3.16
8,"COCc1ccc(C(=O)Nc2nc3c(OC)ccc(N4CCOCC4)c3s2)cc1 [Example 315, 4-Methoxymethyl-N-(4-methoxy-7-morpholin-4-yl-benzothiazol-2-yl)-benzamide]",2.51
9,"COc1ccc(N2CCOCC2)c2sc(NC(=O)c3ccccc3)nc12 [Example 277, N-(4-Methoxy-7-morpholin-4-yl-benzothiazol-2-yl)-benzamide]",2
10,"COCCN(C)Cc1ccc(C(=O)Nc2nc3c(OC)ccc(-c4csc(-c5ccc(C)nc5)n4)c3s2)cc1 [Example 238, 4-{[(2-Methoxy-ethyl)-methyl-amino]-methyl}-N-{4-methoxy-7-[2-(6-methyl-pyridin-3-yl)-thiazol-4-yl]-benzothiazol-2-yl}-benzamide]",2
11,"COc1ccc(-c2ccccc2)c2sc(NC(=O)c3ccc(CN)cc3)nc12 [Example 121, 4-Aminomethyl-N-(4-methoxy-7-phenyl-benzothiazol-2-yl)-benzamide hydrochloride salt (1:1)]",1
12,"COc1ccc(-c2ccccc2)c2sc(NC(=O)c3ccc(C)o3)nc12 [Example 10, 5-Methyl-furan-2-carboxylic acid (4-methoxy-7-phenyl-benzothiazol-2-yl)-amide]",1
13,"COc1ccc(-c2ccccc2)c2sc(NC(=O)c3ccc(CN4CC[C@H](N(C)C)C4)cc3)nc12 [Example 125, 4-(3 (S)-Dimethylamino-pyrrolidin-1-ylmethyl)-N-(4-methoxy-7-phenyl-benzothiazol-2-yl)-benzamide hydrochlorde salt (1:2)]",1
14,"COc1ccc(-c2ccccc2)c2sc(NC(=O)c3ccc(CN4CCC(O)CC4)cc3)nc12 [Example 108, 4-(4-Hydroxy-piperidin-1-ylmethyl)-N-(4-methoxy-7-phenyl-benzothiazol-2-yl)-benzamide hydrochloride salt (1:1)]",1.26
15,"CNCc1cccc(C(=O)Nc2nc3c(OC)ccc(N4CCOCC4)c3s2)c1 [Example 279, N-(4-Methoxy-7-morpholin-4-yl-benzothiazol-2-yl)-3-methylaminomethyl-benzamide]",1.58
16,"COCCNCc1ccc(C(=O)Nc2nc3c(OC)ccc(-c4ccccc4)c3s2)cc1 [Example 91, 4-[(2-Methoxy-ethylamino)-methyl]-N-(4-methoxy-7-phenyl-benzothiazol-2-yl)-benzamide hydrochloride salt (1:1)]",1.58
17,"COc1ccc(-c2ccccc2)c2sc(NC(=O)c3ccc(Cn4ccnc4)cc3)nc12 [Example 100, 4-Imidazol-1-ylmethyl-N-(4-methoxy-7-phenyl-benzothiazol-2-yl)-benzamide hydrochloride salt (1:1)]",0.501
18,COCCNCc1cccc(C(=O)Nc2nc3c(OC)ccc(N4CCOCC4)c3s2)c1 [Example 286],1.58
19,"COc1ccc(N2CCOCC2)c2sc(NC(=O)c3cccc(CN4CCCC4)c3)nc12 [Example 289, N-(4-Methoxy-7-morpholin-4-yl-benzothiazol-2-yl)-3-pyrrolidin-1-ylmethyl-benzamide]",1.26
20,"COc1ccc(N2CCOCC2)c2sc(NC(=O)c3ccc(F)cc3)nc12 [Example 275, 4-Fluoro-N-(4-methoxy-7-morpholin-4-yl-benzothiazol-2-yl)-benzamide]",2
21,"COc1ccc(-c2ccccc2)c2sc(NC(=O)c3ccc(CNCc4ccncc4)cc3)nc12 [Example 96, N-(4-Methoxy-7-phenyl-benzothiazol-2-yl)-4-{[(pyridin-4-ylmethyl)-amino]-methyl}-benzamide hydrochloride salt (1:2)]",1.58
22,"COC(=O)Nc1nc2c(OC)ccc(-c3csc(-c4ccc(C)nc4)n3)c2s1 [Example 201, {4-Methoxy-7-[2-(6-methyl-pyridin-3-yl)-thiazol-4-yl]-benzothiazol-2-yl}-carbamic acid methyl ester]",2.51
23,"COc1ccc(N2CCOCC2)c2sc(NC(=O)c3ccc(CSCCN(C)C)cc3)nc12 [Example 298, 4-(2-Dimethylamino-ethylsulfanylmethyl)-N-(4-methoxy-7-morpholin-4-yl-benzothiazol-2-yl)-benzamide]",2
24,"COc1ccc(N2CCOCC2)c2sc(NC(=O)C3CCN(C(=O)OC(C)(C)C)CC3)nc12 [Example 326, 4-(4-Methoxy-7-morpholin-4-yl-benzothiazol-2-ylcarbamoyl)-piperidine-1-carboxylic acid tert-butyl ester]",3.16
25,"CCOCCNCc1ccc(C(=O)Nc2nc3c(OC)ccc(N4CCOCC4)c3s2)cc1 [Example 290, 4-[(2-Ethoxy-ethylamino)-methyl]-N-(4-methoxy-7-morpholin-4-yl-benzothiazol-2-yl)-benzamide]",2.51
26,"CNCc1cc(C(=O)Nc2nc3c(OC)ccc(N4CCOCC4)c3s2)ccc1Cl [Example 280, 4-Chloro-N-(4-methoxy-7-morpholin-4-yl-benzothiazol-2-yl)-3-methylaminomethyl-benzamide]",2
27,"COc1ccc(-c2ccccc2)c2sc(NC(=O)c3ccc(F)cc3)nc12 [Example 23, 4-Fluoro-N-(4-methoxy-7-phenyl-benzothiazol-2-yl)-benzamide]",1.26
28,"COc1ccc(N2CCOCC2)c2sc(NC(=O)c3ccc(C(F)(F)F)cc3)nc12 [Example 271, N-(4-Methoxy-7-morpholin-4-yl-benzothiazol-2-yl)-4-trifluoromethyl-benzamide]",2.51
